Tests used:
hPK-M2 [1] = target: T1, hPK-M2 (Homo sapiens, UniProt P14618); test: Luminescent pyruvate kinase-luciferase coupled assay (KinaseGlo); assay type: biochemical; details: for activation at 57 µM / hPK, M2 Max. Res.: KinaseGlo, % activation at 57 μM of compound; for activation at 57 µM: read-out: hPK, M2 Max. Res.; for AC50: luminescent pyruvate kinase-luciferase coupled assay (KinaseGlo), tables, read-out: hPK, M2 AC50; for Emax: luciferase-coupled assay, relative to activation by FBP, read-out: maximum response
Method in brief: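 Activation assay with 0.1 mM ADP and 0.5 mM PEP in 50 mM imidazole pH 7.2, 50 mM KCl, 7 mM MgCl2, 0.01% tween 20, 0.05% BSA; 1 h at r.t. ATP produced was read by luciferase luminescence. AC50 values were normalized to DMSO (uninhibited enzyme) and no-enzyme controls.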

hPK-M2 [2] = target: T1, hPK-M2; test: Fluorescent pyruvate kinase-lactate dehydrogenase (LDH) coupled secondary assay; assay type: biochemical; details: for LDH hPK, M2 Max. Res.: % activation at 57 μM of compound; for Emax: read-out: maximum response, LDH assay
Description: Fluorescent Pyruvate Kinase-Lactate Dehydrogenase Coupled Secondary Assay.
Plates were immediately placed in ViewLux (Perkin Elmer) and NADH fluorescence was determined at 30 second exposure intervals for between 3 and 6 minutes. Data were normalized to the uninhibited and EC100 activation using known activators such as fructose-1,6-bis-phosphate. […] Data was collected on the Perkin Elmer Viewlux.

[3] = tables, read-out: LDH hPK, M2 AC50

T1 sequence (P14618 whole entry): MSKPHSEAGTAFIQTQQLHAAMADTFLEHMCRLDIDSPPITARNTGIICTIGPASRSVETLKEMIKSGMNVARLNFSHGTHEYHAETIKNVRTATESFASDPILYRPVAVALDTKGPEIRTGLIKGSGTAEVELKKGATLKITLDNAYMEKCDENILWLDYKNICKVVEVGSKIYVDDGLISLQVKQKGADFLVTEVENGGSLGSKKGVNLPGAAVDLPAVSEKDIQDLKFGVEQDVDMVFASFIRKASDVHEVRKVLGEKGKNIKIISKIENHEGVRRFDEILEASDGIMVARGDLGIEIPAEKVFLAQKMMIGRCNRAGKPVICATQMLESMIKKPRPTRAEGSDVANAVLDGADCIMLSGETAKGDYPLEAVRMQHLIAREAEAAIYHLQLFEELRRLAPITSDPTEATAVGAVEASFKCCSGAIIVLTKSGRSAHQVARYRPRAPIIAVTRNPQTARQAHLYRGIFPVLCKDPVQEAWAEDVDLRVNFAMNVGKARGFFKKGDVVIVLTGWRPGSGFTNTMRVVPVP

| SMILES | activation at 57 µM (hPK-M2 [1]) [%] | AC50 (hPK-M2 [1]) [nM] | LDH hPK, M2 Max. Res. (hPK-M2 [2]) [%] | AC50 (hPK-M2 [2]; [3]) [nM] | Emax (hPK-M2 [1]) [%] | Emax (hPK-M2 [2]) [%] | AC50 (hPK-M2 [2]; read-out: AC50, LDH assay) [nM] | hPK, M2 Max. Res. (hPK-M2 [1]) [%] |
| --- | --- | --- | --- | --- | --- | --- | --- | --- |
| COc1cc(F)c(S(=O)(=O)N2CCCN(S(=O)(=O)c3ccc4c(c3)OCCO4)CC2)c(F)c1 [Compound 128] | 96.7 | 36.6 | 159.85 | 58 | – | – | – | – |
| O=S(=O)(c1cccc(F)c1)N1CCN(S(=O)(=O)c2ccc3c(c2)OCCO3)CC1 [Compound 7, 1-(2,3-dihydrobenzo[b][1,4]dioxin-6-ylsulfonyl)-4-(3-fluorophenylsulfonyl)piperazine] | 107 ± 8.8 | 316 | – | – | 96.3 | 259 | – | – |
| Nc1cccc(S(=O)(=O)N2CCCN(S(=O)(=O)c3ccc4c(c3)OCCO4)CC2)c1 [Compound 124] | 88.9 | 32.6 | 169.71 | – | – | – | – | – |
| O=S(=O)(c1c(F)cccc1F)N1CCN(S(=O)(=O)c2c(F)cccc2F)CC1 [Compound 22, 1,4-bis(2,6-difluorophenylsulfonyl)piperazine] | 74.3 ± 9.8 | 66 | – | – | – | 85 ± 8 | 172 ± 29 | – |
| Cn1c2cc(CO)sc2c2cnn(Cc3ccccc3F)c(=O)c21 [Compound 85, 2-Hydroxylmethyl-4-methyl-6-[(2-fluorophenyl)methyl]-4H-thieno[3,2-b]pyrrole[3,2-d]pyridazinone] | 103 ± 7.2 | 48 ± 10 | – | – | – | 155 | 220 ± 30 | – |
| Cn1c2ccsc2c2ncn(Cc3ccccc3F)c(=O)c21 [Compound 100, 4-Methyl-6-[(2-fluorophenyl)methyl]-4H-thieno[3,2-b]pyrrole[3,2-d]pyrimidinone] | – | – | – | – | < 80 | < 80 | – | – |
| CC(=O)Nc1cccc(S(=O)(=O)N2CCCN(S(=O)(=O)c3ccc4c(c3)OCCO4)CC2)c1 [Compound 131] | – | 819 | 123.67 | 819 | – | – | – | 91.11 |
| COc1cc(F)c(S(=O)(=O)N2CCCN(S(=O)(=O)c3cccc(NC(C)=O)c3)CC2)c(F)c1 [Compound 126] | 83.8 | 2910 | 114.61 | 2910 | – | – | – | – |
| Cc1cc2c(s1)c1cnn(Cc3ccc(F)cc3F)c(=O)c1n2C [Compound 112, 2,4-Methyl-6-[(2,4-difluorophenyl)methyl]-4H-thieno[3,2-b]pyrrole[3,2-d]pyridazinone] | – | 44 ± 10 | – | – | – | 217 | 170 ± 30 | – |
| COc1ccc(S(=O)(=O)N2CCN(S(=O)(=O)c3c(F)cccc3F)CC2)cc1 [Compound 21, 1-(2,6-difluorophenylsulfonyl)-4-(4-methoxyphenylsulfonyl)piperazine] | 102 ± 9.2 | 90 | – | – | – | 124 ± 30 | 211 ± 50 | – |
| Nc1ccc(S(=O)(=O)N2CCN(S(=O)(=O)c3ccc4c(c3)OCCO4)CC2)cc1 [Compound 151] | – | 410 | 174.46 | 366 | – | – | – | 91.84 |
| CC(=O)c1cc2c(s1)c1cnn(Cc3ccccc3F)c(=O)c1n2C [Compound 87, 2-Acetyl-4-methyl-6-[(2-fluorophenyl)methyl]-4H-thieno[3,2-b]pyrrole[3,2-d]pyridazinone] | 108 ± 4.9 | 11 | – | – | – | 200 | 150 ± 30 | – |
| Cc1cc2c(s1)c1cnn(Cc3ccc(Cl)cc3)c(=O)c1n2C [Compound 108, 2,4-Methyl-6-[(4-chlorophenyl)methyl]-4H-thieno[3,2-b]pyrrole[3,2-d]pyridazinone] | 90.6 ± 3.3 | 326 ± 90 | – | – | – | 191 | 1650 | – |
| Nc1ccc(S(=O)(=O)N2CCCN(S(=O)(=O)c3ccc4c(c3)OCCO4)CC2)cc1 [Compound 125] | 86.6 | 103 | 131.59 | 163 | – | – | – | – |
| Cc1cc2c(s1)c1cnn(Cc3c(F)cccc3F)c(=O)c1n2C [Compound 113, 2,4-Methyl-6-[(2,6-difluorophenyl)methyl]-4H-thieno[3,2-b]pyrrole[3,2-d]pyridazinone] | 93.8 ± 5 | 49 ± 20 | – | – | – | 240 | 140 ± 10 | – |

Reference: US8937067B2, “Activators of human pyruvate kinase” (The United States of America, as represented by the …, priority 2008, dated 2015)
